Measurements published in ChEMBL document CHEMBL1201862, “PubChem BioAssay data set” (2004).
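Tested at 5 concentrations; 48 h exposure; 96-well plates; endpoints linearly interpolated, else capped at highest concentration. Abbreviation: GI50, concentration required for 50% inhibition of growth.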 Active and inactive are the calls of the source. No stated cut-off is given here; in the data, active = GI50 up to about 1.1 µM and inactive = higher.

Columns and labels:
Experiment in all cases: growth of human tumour cells (NCI), 48 h
SK-OV-3 = system: SK-OV-3
ACHN = system: ACHN
MDA-N = system: MDA-N
MOLT-4 = system: MOLT-4
K562 = system: K562
786-0 = system: 786-0
KM12 = system: KM12
HCT-116 = system: HCT-116
BT-549 = system: BT-549
EKVX = system: EKVX
SNB-75 = system: SNB-75
PC-3 = system: PC-3
LOX IMVI = system: LOX IMVI
NCI-H460 = system: NCI-H460
A549 = system: A549
HOP-62 = system: HOP-62
TK-10 = system: TK-10
HCT-15 = system: HCT-15
A498 = system: A498
HCC 2998 = system: HCC 2998

| SMILES | GI50 (SK-OV-3) | GI50 (ACHN) | GI50 (MDA-N) | GI50 (MOLT-4) | GI50 (K562) | GI50 (786-0) | GI50 (KM12) | GI50 (HCT-116) | GI50 (BT-549) | GI50 (EKVX) | GI50 (SNB-75) | GI50 (PC-3) | GI50 (LOX IMVI) | GI50 (NCI-H460) | GI50 (A549) | GI50 (HOP-62) | GI50 (TK-10) | GI50 (HCT-15) | GI50 (A498) | GI50 (HCC 2998) |
| --- | --- | --- | --- | --- | --- | --- | --- | --- | --- | --- | --- | --- | --- | --- | --- | --- | --- | --- | --- | --- |
| CC1(O)CC(=O)c2c(cc3ccc(-c4c5c(c(O)c6c(O)cccc46)C(=O)CC(C)(O)C5)c(O)c3c2O)C1 (centres undefined) | 2.01 µM (inactive) | 0.125 µM (active) | 0.867 µM (active) | 0.422 µM (active) | 0.298 µM (active) | 0.435 µM (active) | 0.0278 µM (active) | 0.0647 µM (active) | 0.347 µM (active) | 0.562 µM (active) | 0.129 µM (active) | 0.0834 µM (active) | 0.817 µM (active) | 0.16 µM (active) | 0.365 µM (active) | 0.296 µM (active) | 0.767 µM (active) | 0.09 µM | 0.465 µM (active) |  |
| CC1(C)CC(=O)c2c(nc3ccc4ccccc4c3c2-c2ccc(NC(=O)CCCCCCCCC(=O)Nc3ccc(-c4c5c(nc6ccc7ccccc7c46)CC(C)(C)CC5=O)cc3)cc2)C1 | > 100 µM (inactive) | > 100 µM (inactive) | > 100 µM (inactive) | > 100 µM (inactive) | > 100 µM (inactive) | > 100 µM (inactive) | > 100 µM (inactive) | > 100 µM (inactive) | > 100 µM (inactive) | > 100 µM (inactive) |  | > 100 µM (inactive) | > 100 µM (inactive) | > 100 µM (inactive) | > 100 µM (inactive) | > 100 µM (inactive) | > 100 µM (inactive) | > 100 µM | > 100 µM (inactive) |  |
| CC(/C=C/c1ccc([N+](=O)[O-])o1)=N/N1CC(CN2CCOCC2)OC1=O (centres undefined) | 52.2 µM (inactive) | 16.6 µM (inactive) | 18.6 µM (inactive) | 22.9 µM (inactive) | 16.9 µM (inactive) | 28.1 µM (inactive) | 42.8 µM (inactive) | 11.4 µM (inactive) | 6.58 µM (inactive) | 30.9 µM (inactive) |  | 14 µM (inactive) | 24.9 µM (inactive) | 21.5 µM (inactive) | 26.8 µM (inactive) | 26.9 µM (inactive) | 45.1 µM (inactive) | 16.5 µM | 32.6 µM (inactive) | 28.9 µM (inactive) |
| O=C1c2ccccc2C(=O)c2c1ccc(C1C(=O)c3ccccc3C1=O)c2-c1c(C2C(=O)c3ccccc3C2=O)ccc2c1C(=O)c1ccccc1C2=O | > 100 µM (inactive) | > 100 µM (inactive) | > 100 µM (inactive) | 19 µM (inactive) | 36.6 µM (inactive) | > 100 µM (inactive) | > 100 µM (inactive) | > 100 µM (inactive) | > 100 µM (inactive) | > 100 µM (inactive) | > 100 µM (inactive) | > 100 µM (inactive) | 74.3 µM (inactive) | > 100 µM (inactive) | > 100 µM (inactive) | > 100 µM (inactive) | > 100 µM (inactive) | > 100 µM | > 100 µM (inactive) |  |
| COc1ccc(-n2c3c(c4cc(O)ccc42)C(=O)c2ccccc2C3=O)cc1 | 0.404 µM (active) | 0.682 µM (active) | > 100 µM (inactive) | 7.66 µM (inactive) | 30.7 µM (inactive) | 1.72 µM (inactive) | 2.13 µM (inactive) | 0.305 µM (active) | 11.2 µM (inactive) | 4.74 µM (inactive) |  | 5.32 µM (inactive) | 4.71 µM (inactive) | 3.97 µM (inactive) | 11.7 µM (inactive) | 2.26 µM (inactive) | 8.55 µM (inactive) | > 100 µM | 3.93 µM (inactive) |  |
| CCOC(=O)CCC(NC(=O)C(N)c1ccc([N+](=O)[O-])cc1)C(=O)NC(CCC(=O)OCC)C(=O)OCC (centres undefined) |  | > 100 µM (inactive) | > 100 µM (inactive) | > 100 µM (inactive) | > 100 µM (inactive) | > 100 µM (inactive) | > 100 µM (inactive) | > 100 µM (inactive) | > 100 µM (inactive) | > 100 µM (inactive) | > 100 µM (inactive) | > 100 µM (inactive) |  | > 100 µM (inactive) | > 100 µM (inactive) | > 100 µM (inactive) | > 100 µM (inactive) | > 100 µM | > 100 µM (inactive) | > 100 µM (inactive) |
| Cc1ccc(S(=O)(=O)N2C[C@@H]3CC[C@]4(CO[Si](C)(C)C(C)(C)C)N[C@@H](c5ccccc5)[C@H]2[C@H]34)cc1 | 68.1 µM (inactive) | 37.2 µM (inactive) | 29.2 µM (inactive) | 19 µM (inactive) | 9.02 µM (inactive) | 27.8 µM (inactive) | 26.5 µM (inactive) | 12 µM (inactive) | 20.4 µM (inactive) | 34.2 µM (inactive) |  | 18.2 µM (inactive) | 28 µM (inactive) | 26.1 µM (inactive) | 22.4 µM (inactive) | 44.2 µM (inactive) | 38.5 µM (inactive) | 24.7 µM | 48.8 µM (inactive) | 18.4 µM (inactive) |
| N=C(N)NC(CC(=O)O)c1ccccc1 (centres undefined) | > 100 µM (inactive) | > 100 µM (inactive) | > 100 µM (inactive) |  | > 100 µM (inactive) | > 100 µM (inactive) | > 100 µM (inactive) | > 100 µM (inactive) | > 100 µM (inactive) | > 100 µM (inactive) | > 100 µM (inactive) | > 100 µM (inactive) | > 100 µM (inactive) | > 100 µM (inactive) | > 100 µM (inactive) | > 100 µM (inactive) | > 100 µM (inactive) | > 100 µM | > 100 µM (inactive) |  |
| O=c1oc2ccccc2cc1-c1nc2ccccc2c(=O)[nH]1 | > 100 µM (inactive) | 90.8 µM (inactive) | > 100 µM (inactive) | > 100 µM (inactive) | > 100 µM (inactive) | > 100 µM (inactive) | > 100 µM (inactive) | > 100 µM (inactive) | 77.8 µM (inactive) | > 100 µM (inactive) | 69.3 µM (inactive) | > 100 µM (inactive) | > 100 µM (inactive) | > 100 µM (inactive) | > 100 µM (inactive) | > 100 µM (inactive) | > 100 µM (inactive) | > 100 µM |  | > 100 µM (inactive) |
| Cc1cn(CC(=S)NCCc2c[nH]c3ccccc23)c(=O)[nH]c1=O | > 100 µM (inactive) | 69.3 µM (inactive) | 48 µM (inactive) | 12.8 µM (inactive) | 39.1 µM (inactive) | > 100 µM (inactive) | > 100 µM (inactive) | 76.7 µM (inactive) | > 100 µM (inactive) | 17 µM (inactive) |  | 77.1 µM (inactive) | > 100 µM (inactive) |  | 74.1 µM (inactive) | > 100 µM (inactive) |  | > 100 µM | 60.1 µM (inactive) |  |
| CCNCC(O)c1ccc(N)c([N+](=O)[O-])c1 (centres undefined) | > 100 µM (inactive) | > 100 µM (inactive) | > 100 µM (inactive) | > 100 µM (inactive) | > 100 µM (inactive) | > 100 µM (inactive) |  | > 100 µM (inactive) | > 100 µM (inactive) | > 100 µM (inactive) | > 100 µM (inactive) | > 100 µM (inactive) | > 100 µM (inactive) | > 100 µM (inactive) | > 100 µM (inactive) | > 100 µM (inactive) | > 100 µM (inactive) | > 100 µM | > 100 µM (inactive) |  |
| Nc1ncc(C=O)c(NCC2(CO)CCC2)n1 |  |  | > 100 µM (inactive) | 30.5 µM (inactive) | 36.4 µM (inactive) | > 100 µM (inactive) | 83.9 µM (inactive) | 36.6 µM (inactive) | > 10 µM (inactive) |  | 66.1 µM (inactive) | 82.4 µM (inactive) | 32.1 µM (inactive) | 50 µM (inactive) | 37.5 µM (inactive) | 31.7 µM (inactive) | 15.4 µM (inactive) | 71.1 µM | 26.3 µM (inactive) | > 100 µM (inactive) |
| COc1ccc(CCc2nccn2C)cc1OC | > 100 µM (inactive) | > 100 µM (inactive) | > 100 µM (inactive) | > 100 µM (inactive) | > 100 µM (inactive) | > 100 µM (inactive) |  | > 100 µM (inactive) | > 100 µM (inactive) | > 100 µM (inactive) |  | > 100 µM (inactive) | > 100 µM (inactive) | > 100 µM (inactive) | > 100 µM (inactive) | > 100 µM (inactive) | > 100 µM (inactive) | > 100 µM | > 100 µM (inactive) | > 100 µM (inactive) |
| COc1ccc(Nc2nc3ccccc3n3cccc23)cc1OC | 27 µM (inactive) | 21 µM (inactive) | 15.9 µM (inactive) | 9.98 µM (inactive) | 21 µM (inactive) | 15.4 µM (inactive) | 13.1 µM (inactive) | 16.9 µM (inactive) | 18.5 µM (inactive) | 25.7 µM (inactive) |  | 11.7 µM (inactive) | 14.4 µM (inactive) | 12.9 µM (inactive) | 17.5 µM (inactive) | 16.3 µM (inactive) | 16.5 µM (inactive) | 13.6 µM | 17.9 µM (inactive) | 14.4 µM (inactive) |
| CC(Nc1cccc(Cl)c1)c1ccncc1 (centres undefined) | 15.8 µM (inactive) | 87.1 µM (inactive) | > 100 µM (inactive) | 31 µM (inactive) | 23.1 µM (inactive) | > 100 µM (inactive) | > 100 µM (inactive) | 70.8 µM (inactive) | > 100 µM (inactive) | 57.9 µM (inactive) | > 100 µM (inactive) | 30.5 µM (inactive) | > 100 µM (inactive) | > 100 µM (inactive) | > 100 µM (inactive) | > 100 µM (inactive) | > 100 µM (inactive) | > 100 µM | 95.9 µM (inactive) |  |
